# Experiments:
# [1] = test system: C57BL/6 mice; experiment: Three-day study on GLP-1 and gallbladder filling (bile weight); format: in vivo, mouse; details: 100 mg/kg oral BID 3 days, 30 min after last dose
# Method: C57BL/6 mice, Tgr5 KO mice, or their wild-type littermate controls were orally dosed with vehicle or compounds twice per day for 3 days, with overnight fasting performed on the evening of day 2. On the morning of day 3, animals were dosed orally with compounds and then euthanized by CO2 asphyxiation at 30 minutes after the fifth dose. Plasma was collected for analysis of GLP-1 (X-36) amide as mentioned above, followed immediately by incision into the abdominal cavity to remove and weigh bile from the gallbladder.
# On the third day, compound was dosed in the morning followed 30 minutes later by measurement of bile filling (A) by use of a needle and syringe and GLP-1 (x-36) amide (B) by cardiac puncture.
# [2] = test system: C57BL/6 mice; experiment: Acute in vivo incretin secretion assay (plasma GLP-1 and PYY AUC); details: 100 mg/kg oral, fasted mice, 3-hour time course
# Description: Plasma was separated by centrifugation, aliquoted, and analyzed for GLP-1 (X-36) amide (Mesoscale Discovery) and total PYY (Millipore). Resulting raw data was used to generate area under the curve analyses (AUCs).
# [3] = Plasma compound levels after oral dosing (LC-MS/MS); details: C57BL/6, mouse, 100 mg/kg
# [4] = test system: gallbladder; details: cited from earlier work
# [5] = test system: C57BL/6 mice; experiment: Oral glucose tolerance test, glucose only; details: 100 mg/kg oral, glucose 3 g/kg 15 min after compound
# Method: For measurement of glucose only, overnight-fasted C57BL/6 mice in a normal light cycle were orally dosed with vehicle or compound, followed by an oral bolus of 3 g/kg glucose at 15 minutes post compound. At 0, 20, 40, 60, and 120 minutes post glucose dose, blood glucose was assessed via glucometers. Resulting raw data was used to generate AUCs. […] At 0, 15, 30, 60, and 120 minutes post glucose dose, blood glucose was assessed via glucometers. Resulting raw data was used to generate AUCs.
# [6] = test system: C57BL/6 mice; experiment: Oral glucose tolerance test with hormone measurement; format: in vivo, mouse; details: 10 mg/kg oral, glucose 3 g/kg, 1 hour
# Method: For measurement of glucose only, overnight-fasted C57BL/6 mice in a normal light cycle were orally dosed with vehicle or compound, followed by an oral bolus of 3 g/kg glucose at 15 minutes post compound. At 0, 20, 40, 60, and 120 minutes post glucose dose, blood glucose was assessed via glucometers. Resulting raw data was used to generate AUCs. For measurement of hormones and glucose, overnight-fasted C57BL/6 mice acclimated for two weeks to a reverse light cycle were orally dosed with vehicle or compound, followed by an oral bolus of 3 g/kg glucose at 15 minutes post compound. At 0, 2, 5, 10, 20, 40, and 60 minutes post glucose dose, blood glucose was assessed via glucometers, followed immediately by collection of plasma for active GLP-1 (Mesoscale Discovery), insulin (Mesoscale Discovery), and total PYY. Glucose tolerance tests in diet-induced obese (DIO) C57BL/6 mice were performed in overnight-fasted animals dosed either acutely or after 2-week administration with vehicle or compound 18 at 60 mg/kg, followed 30 minutes post compound by an oral bolus of 2 g/kg glucose. At 0, 15, 30, 60, and 120 minutes post glucose dose, blood glucose was assessed via glucometers. Resulting raw data was used to generate AUCs.
# To evaluate glucose, insulin, GLP-1, and PYY levels throughout the OGTT, each time-point consisted of a separate group of mice that were used to record glucose by use of a glucometer followed by terminal bleeds for measurement of active GLP-1, total PYY, and insulin. AUCs were then calculated for the entire hour of the OGTT. […] Changes in insulin AUCs were not increased with treatment of either sitagliptin or compound 18, likely due to the lower glucose levels reducing the drive for glucose-stimulated insulin secretion (Fig 5D).
# Fig 5 Compound 18 increases GLP-1 and PYY and lowers the glucose and insulin excursions as compared to sitagliptin in an OGTT in C57BL/6 mice. […] Plasma was analyzed for active GLP-1 (A), total PYY (B), and insulin (D), while blood glucose was measured by glucometers (C).
SMILES,bile weight (gallbladder filling) [1],plasma GLP-1 levels [1],GLP-1 AUC increase over vehicle [2] [fold over vehicle],PYY AUC increase over vehicle [2] [fold over vehicle],AUC(0-t) [3] [µM·h],Cmax [3] [µM],Tmax [3] [h],gallbladder filling with bile [4],effect on glucose tolerance in OGTT [5],insulin AUC during OGTT [6]
"CC[C@H]1[C@@H](O)[C@@H]2[C@H](C[C@H](O)[C@]3(C)[C@@H]([C@H](C)C[C@H](C)C(=O)O)CC[C@@H]23)[C@@]2(C)CC[C@@H](O)C[C@@H]12 [INT-777, 6α-ethyl-23(S)-methylcholic acid, reference compound]",significant increase in bile weight,no detectable increase in GLP-1,2.8,1.6,264,136,1.5,stimulated gallbladder filling with bile,no detectable improvement of glucose tolerance,–
"N[C@@H](CC(=O)N1CCn2c(nnc2C(F)(F)F)C1)Cc1cc(F)c(F)cc1F [sitagliptin, reference compound]",–,–,–,–,–,–,–,–,–,not increased

# Source: article PMC4551797 (PLoS ONE, 2015)
